Test results: the supplement of paper PMC11061612

Experiments:
Assay in all cases: Bliss excess, mean over the matrix (fraction); higher = more synergy
[1] = tested on: 22RV1 (Prostate Carcinoma)
How it was run: (§1)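 Bliss excess equals the observed combination effect minus the expected value EA + EB − EA·EB, where EA and EB are the effects of each agent alone. Combination Emax is the second-highest inhibition within the matrix. Inhibition was scaled from CellTiter-Glo 2.0 luminescence, with 0 set by vehicle wells and 1 by blank wells, after 72 hours of two-drug dosing of cells plated in 1536-well plates.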

IM-9 (Non-Cancerous) = tested on: IM-9 (Non-Cancerous)
How it was run: as §1

[2] = tested on: JHH-2 (Hepatocellular Carcinoma)
How it was run: as §1

[3] = tested on: JHU-022 (Oral Cavity Carcinoma)
How it was run: as §1

KP-N-YN (Neuroblastoma) = tested on: KP-N-YN (Neuroblastoma)
How it was run: as §1

[4] = tested on: KYSE-220 (Esophageal Squamous Cell Carcinoma)
How it was run: as §1

NB13 (Neuroblastoma) = tested on: NB13 (Neuroblastoma)
How it was run: as §1

[5] = tested on: NCI-H2087 (Lung Adenocarcinoma)
How it was run: as §1

[6] = tested on: LU-165 (Small Cell Lung Carcinoma)
How it was run: as §1

Structure (SMILES) | Bliss excess [1] | Bliss excess (IM-9 (Non-Cancerous)) | Bliss excess [2] | Bliss excess [3] | Bliss excess (KP-N-YN (Neuroblastoma)) | Bliss excess [4] | Bliss excess (NB13 (Neuroblastoma)) | Bliss excess [5] | Bliss excess [6]
CN(CCO)CC[C@H](CSc1ccccc1)Nc1ccc(S(=O)(=O)NC(=O)c2ccc(N3CCC([C@@H](O)c4ccccc4-c4ccc(Cl)cc4)CC3)cc2)cc1S(=O)(=O)C(F)(F)F [AZD4320] + CS(=O)(=O)CCNCc1ccc(-c2ccc3ncnc(Nc4ccc(OCc5cccc(F)c5)c(Cl)c4)c3c2)o1 [Lapatinib] (first compound max 1 µM, 7x7, partner max 10 µM) | -0.0394 | 0.117 | 0.0312 | 0.0438 | 0.0811 | 0.0087 | 0.0537 | -0.0033 | 
Cc1c2c(nn1C)CSCc1cc(n(C)n1)CSc1cc(c3ccccc3c1)OCCCc1c(C(=O)O)n(C)c3c-2c(Cl)ccc13 [AZD5991] + Nc1ccn([C@@H]2O[C@H](CO)[C@@H](O)C2(F)F)c(=O)n1 [Gemcitabine] (first compound max 1 µM, 7x7, partner max 0.3 µM) | -0.02 | -0.0364 | -0.005 | -0.0307 |  | 0.0842 |  | -0.0307 | -0.0278
C[C@@H](Oc1cc(-c2cnn(C3CCNCC3)c2)cnc1N)c1c(Cl)ccc(F)c1Cl [Crizotinib] + Cn1cnc2c(F)c(Nc3ccc(Br)cc3Cl)c(C(=O)NOCCO)cc21 [Selumetinib] (first compound max 10 µM, 7x7, partner max 10 µM) | 0.0331 | -0.009 | 0.0094 | -0.0115 | -0.105 | 0.0436 | -0.104 | -0.0078 | -0.082
CC1(C)CCC(CN2CCN(c3ccc(C(=O)NS(=O)(=O)c4ccc(NCC5CCOCC5)c([N+](=O)[O-])c4)c(Oc4cnc5[nH]ccc5c4)c3)CC2)=C(c2ccc(Cl)cc2)C1 [Venetoclax] + CS(=O)(=O)CCNCc1ccc(-c2ccc3ncnc(Nc4ccc(OCc5cccc(F)c5)c(Cl)c4)c3c2)o1 [Lapatinib] (first compound max 1 µM, 7x7, partner max 10 µM) | -0.0688 | 0.0902 | -0.0664 | -0.0551 | -0.0157 | -0.0233 | -0.028 | -0.0431 | -0.0289
Cc1nc(-c2cn3c(n2)-c2ccc(-c4cnn(C(C)(C)C(N)=O)c4)cc2OCC3)n(C(C)C)n1 [Taselisib] + O=C(Nc1ccc2[nH]nc(-c3ccncc3)c2c1)[C@@H]1CCN(CC(=O)N2CCN(c3ccc(-c4ncccn4)cc3)CC2)C1 [SCH772984] (first compound max 10 µM, 7x7, partner max 5 µM) | 0.0502 | -0.0407 | -0.0398 | -0.0001 | 0.0278 | 0.116 | 0.0664 | 0.0543 | -0.0073
O=C(c1cc(Cc2n[nH]c(=O)c3ccccc23)ccc1F)N1CCN(C(=O)C2CC2)CC1 [Olaparib] + CC1(C)CCC(CN2CCN(c3ccc(C(=O)NS(=O)(=O)c4ccc(NCC5CCOCC5)c([N+](=O)[O-])c4)c(Oc4cnc5[nH]ccc5c4)c3)CC2)=C(c2ccc(Cl)cc2)C1 [Venetoclax] (first compound max 10 µM, 7x7, partner max 1 µM) | -0.0622 | 0.112 | -0.0527 | -0.0455 | 0.186 | -0.0369 |  | -0.0543 | -0.0248
C[C@@H](Nc1cc(F)cc(F)c1)c1cc(C(=O)N(C)C)cc2c(=O)cc(N3CCOCC3)oc12 [AZD8186] + C1CN(CCC1(C(=O)N[C@@H](CCO)C2=CC=C(C=C2)Cl)N)C3=NC=NC4=C3C=CN4 [AZD5363] (first compound max 10 µM, 7x7, partner max 10 µM) | -0.0401 | 0.0493 | -0.0637 | -0.0909 | -0.0765 | -0.0132 |  | -0.0043 | -0.086
O=C(c1cc(Cc2n[nH]c(=O)c3ccccc23)ccc1F)N1CCN(C(=O)C2CC2)CC1 [Olaparib] + COc1nnc2ccc(N3CCC(c4ccc(OCCN5CCN(C)C(=O)[C@H]5C)cc4)CC3)nn12 [AZD5153] (first compound max 10 µM, 7x7, partner max 1 µM) | -0.0312 | 0.0107 | -0.0195 | -0.0676 | -0.0142 | -0.045 |  | -0.0304 | -0.0305
C[C@@H](Oc1cc(-c2cnn(C3CCNCC3)c2)cnc1N)c1c(Cl)ccc(F)c1Cl [Crizotinib] + CC1=C(C(=CC=C1)Cl)NC(=O)C2=CN=C(S2)NC3=CC(=NC(=N3)C)N4CCN(CC4)CCO [Dasatinib] (first compound max 10 µM, 7x7, partner max 2 µM) | -0.0187 | 0.0001 | -0.0101 | -0.0186 | -0.0895 | -0.0166 | -0.06 | -0.0254 | -0.0337
C[C@@H](Nc1cc(F)cc(F)c1)c1cc(C(=O)N(C)C)cc2c(=O)cc(N3CCOCC3)oc12 [AZD8186] + CC(=O)c1c(C)c2cnc(Nc3ccc(N4CCNCC4)cn3)nc2n(C2CCCC2)c1=O [Palbociclib] (first compound max 10 µM, 7x7, partner max 10 µM) | -0.0421 | 0.112 | -0.0282 | -0.0376 | 0.0108 | -0.0494 |  | -0.0232 | -0.0313
